Data reported in PubChem BioAssay (NCI).
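In this assay, cells in 96-well plates receive the compound at five concentrations for 48 hours. Endpoints are linearly interpolated between the surrounding concentrations. Definition used: TGI = concentration required for complete inhibition of growth.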

How the values were obtained:
Experiment in all cases: DTP human tumour cell line panel, 48 h
[1] = tested on: OVCAR-8 ovarian
[2] = tested on: MCF7 breast
[3] = tested on: HCT-15 colon
[4] = tested on: NCI/ADR-RES ovarian
[5] = tested on: NCI-H522 lung
[6] = tested on: UACC-62 melanoma
[7] = tested on: HOP-92 NSCLC
[8] = tested on: SK-OV-3 ovarian
[9] = tested on: SN12C renal
[10] = tested on: OVCAR-4 ovarian
[11] = tested on: MDA-MB-231 breast
[12] = tested on: HL-60(TB) leukemia

Row | Structure (SMILES) | TGI [1] | TGI [2] | TGI [3] | TGI [4] | TGI [5] | TGI [6] | TGI [7] | TGI [8] | TGI [9] | TGI [10] | TGI [11] | TGI [12]
1 | COC1(OC)c2no[n+]([O-])c2CCC1O (stereo unspecified) | > 100 µM | > 100 µM | > 100 µM | > 100 µM | > 100 µM | > 100 µM | > 100 µM | > 100 µM | > 100 µM | > 100 µM | > 100 µM | –
2 | COC(=O)c1ccc(C)cc1CC1Cc2cc(C)ccc2C1=O (stereo unspecified) | > 100 µM | > 100 µM | > 100 µM | > 100 µM | > 100 µM | > 100 µM | – | > 100 µM | > 100 µM | > 100 µM | > 100 µM | > 100 µM
3 | COC(=O)N/N=C(\Cc1ccccc1)CN(C)C | > 100 µM | – | – | – | > 100 µM | > 100 µM | > 100 µM | > 100 µM | – | – | – | > 100 µM
4 | CN(C)Nc1cc(=O)[nH]c(=O)[nH]1 | > 100 µM | > 100 µM | > 100 µM | > 100 µM | – | – | > 100 µM | – | > 100 µM | > 100 µM | > 100 µM | > 100 µM
5 | Cc1csc2[n+]1C(=O)/C(=C\c1ccc([N+](=O)[O-])cc1)S2 | > 100 µM | > 100 µM | – | 63.6 µM | – | 41 µM | 47.7 µM | 85.1 µM | 99.3 µM | > 100 µM | 68.6 µM | 64.4 µM
6 | COC(=O)C(=O)C(C(=O)C(=O)Nc1ccc(F)cc1)c1nc2ccc([N+](=O)[O-])cc2[nH]c1=O (stereo unspecified) | > 100 µM | – | > 100 µM | – | > 100 µM | – | > 100 µM | > 100 µM | > 100 µM | > 100 µM | – | > 100 µM
7 | COC(=O)[C@@H]1CN(C(C)=O)C(=O)N1 | > 100 µM | – | > 100 µM | > 100 µM | > 100 µM | > 100 µM | > 100 µM | > 100 µM | > 100 µM | > 100 µM | > 100 µM | > 100 µM
8 | C/C(=N\NS(=O)(=O)c1ccc(C)cc1)C(CN1CCCCC1)C(c1ccccc1)c1c(O)c2ccccc2oc1=O (stereo unspecified) | > 100 µM | – | > 100 µM | – | > 100 µM | > 100 µM | > 100 µM | > 100 µM | > 100 µM | > 100 µM | – | > 100 µM
9 | [N-]=[N+]=Nc1ccccc1C(=O)N1C(=O)c2ccccc2C(=O)N(C(=O)c2ccccc2N=[N+]=[N-])c2ccccc21 | > 100 µM | > 100 µM | > 100 µM | > 100 µM | > 100 µM | > 100 µM | 83.5 µM | > 100 µM | > 100 µM | > 100 µM | > 100 µM | –
10 | CCSc1[nH]c(NC(=S)NC(=O)c2ccccc2Cl)c(C(N)=O)c1C(N)=O | > 10 µM | > 10 µM | > 10 µM | – | – | > 10 µM | > 10 µM | > 10 µM | > 10 µM | > 10 µM | > 10 µM | > 10 µM
11 | CCOC(=O)c1cccn1S(=O)(=O)c1cc(Cl)ccc1NC(=O)CC | – | > 100 µM | > 100 µM | – | 63.1 µM | > 100 µM | > 100 µM | > 100 µM | > 100 µM | > 100 µM | > 100 µM | > 100 µM
12 | CNc1ncnc2c1ncn2C1C=CC(COS(N)(=O)=O)C1 (stereo unspecified) | > 100 µM | > 100 µM | > 100 µM | > 100 µM | > 100 µM | > 100 µM | > 100 µM | > 100 µM | > 100 µM | > 100 µM | – | > 100 µM
13 | Cn1c(=O)c(Br)c(C=O)n(CCO[N+](=O)[O-])c1=O | 7.79 µM | 6.17 µM | 20 µM | 4.31 µM | – | 4.9 µM | 6.85 µM | 38.7 µM | 17.4 µM | – | 8.4 µM | 4.46 µM
14 | CCCCOC(=O)C1C2CCC(O2)C1C(=O)OCCCC (stereo unspecified) | > 100 µM | – | > 100 µM | – | > 100 µM | > 100 µM | > 100 µM | > 100 µM | > 100 µM | > 100 µM | – | > 100 µM
15 | O=C1/C(=C\c2ccc(O)cc2)CCC/C1=C/c1ccc(Cl)c(Cl)c1 | – | 14.9 µM | 9.75 µM | 4.27 µM | – | 5.24 µM | 28.9 µM | 17 µM | 10.4 µM | 5.93 µM | 7.55 µM | 4.94 µM
16 | CC(=O)NC1C(OCc2ccccc2)OC(CO)C(O)C1OC(C)C(=O)NC(C(=O)N[C@@H](CCC(=O)NCCNCCNc1c2ccccc2nc2cccc([N+](=O)[O-])c12)C(N)=O)C(C)C (stereo partly specified) | > 100 µM | 41.5 µM | > 100 µM | > 100 µM | – | – | 69.9 µM | > 100 µM | > 100 µM | > 100 µM | > 100 µM | > 100 µM
17 | O=C(O)c1nc2cc(C(F)(F)F)ccc2nc1Nc1ccc(F)cc1 | 81.7 µM | 72.9 µM | – | > 100 µM | 75.4 µM | 31.1 µM | 39.3 µM | > 100 µM | – | – | 70.8 µM | –
18 | COc1cc2c(oc(=O)c3c4oc([Si](C)(C)C)cc4cc(OC)c23)c2cccc(OCc3ccccc3)c12 | > 71.5 µM | – | > 100 µM | – | > 100 µM | 37.6 µM | > 67.2 µM | > 73.2 µM | > 100 µM | > 88.5 µM | – | > 92 µM
19 | c1ccc2c(c1)cc(C1NCCc3[nH]cnc31)c1ccccc12 (stereo unspecified) | > 100 µM | – | > 100 µM | – | > 68.5 µM | > 51.1 µM | > 95.6 µM | > 100 µM | > 100 µM | > 86.8 µM | – | > 100 µM
20 | C[C@]12CCC(=O)C=C1CC[C@@H]1[C@@H]2CC[C@]2(C)C(=O)NC(=O)C[C@@H]12 | > 100 µM | – | > 100 µM | – | > 100 µM | > 100 µM | > 100 µM | > 100 µM | > 100 µM | > 100 µM | – | > 100 µM
21 | COC(=O)/C=C(/C)n1nc2ccccc2n1 | > 100 µM | > 100 µM | > 100 µM | > 100 µM | > 100 µM | > 100 µM | – | > 100 µM | > 100 µM | > 100 µM | > 100 µM | –
